Measured values as given in publication PMC11574760, “Altering Active-Site Loop Dynamics Enhances Standalone Activity of the Tryptophan Synthase Alpha Subunit” (ACS Catalysis, 2024).

B1: ZmBX1 (Zea mays) (protein)
chain: SRPVSDTMAALMAKGKTAFIPYITAGDPDLATTAEALRLLDGCGADVIELGVPCSDPYIDGPIIQASVARALASGTTMDAVLEMLREVTPELSCPVVLLSYYKPIMSRSLAEMKEAGVHGLIVPDLPYVAAHSLWSEAKNNNLELVLLTTPAIPEDRMKEITKASEGFVYLVSVNGVTGPRANVNPRVESLIQEVKKVTNKPVAVGFGISKPEHVKQIAQWGADGVIIGSAMVRQLGEAASPKQGLRRLEEYARGMKNALP
notes: standalone enzyme; construct details only in supplement

Columns and labels:
Assay in all cases: steady-state kinetics, coupled assay with GAP dehydrogenase (NAD+)
ZmTrpA + ZmTrpB = target: T1, ZmTrpA + ZmTrpB (Zea mays, UniProt B2Y0K4); type: biochemical; conditions: retro-aldol cleavage, 100 mM EPPS/KOH pH 7.5, 180 mM KCl, 40 μM PLP, 6 mM NAD+, 20 mM Na3AsO4, 100 mM L-serine, 30 °C
T1 construct: gene TSA; alpha-beta-beta-alpha tryptophan synthase complex, TrpB in excess; construct details only in supplement; with Tryptophan synthase beta chain, chloroplastic
Description: steady-state kinetics, coupled assay with GAP dehydrogenase (NAD+) on ZmTrpA + ZmTrpB

[1] = target: T2, ZmTrpA^L6BX1 (ZmTrpA_L6zmBX1) (Zea mays, UniProt B2Y0K4, T232V/V233N/T238P/S243N/G244P/K245R); type: biochemical; conditions: retro-aldol cleavage; 100 mM EPPS/KOH pH 7.5, 180 mM KCl, 40 μM PLP, 6 mM NAD+, 20 mM Na3AsO4, 30 °C; no TrpB; cited from earlier work
T2 construct: gene TSA; ZmTrpA with loop 6 replaced by that of ZmBX1; without TrpB
Description: steady-state kinetics, coupled assay with GAP dehydrogenase (NAD+) on ZmTrpA^L6BX1 (ZmTrpA_L6zmBX1)

ZmTrpA^L6BX1 + ZmTrpB = target: T3, ZmTrpA^L6BX1 + ZmTrpB (Zea mays, UniProt B2Y0K4, T232V/V233N/T238P/S243N/G244P/K245R, form not given); type: biochemical; conditions: retro-aldol cleavage, 100 mM EPPS/KOH pH 7.5, 180 mM KCl, 40 μM PLP, 6 mM NAD+, 20 mM Na3AsO4, 100 mM L-serine, 30 °C, variant ZmTrpA^SPM4-L6BX1
T3 construct: gene TSA; ZmTrpA with loop 6 of ZmBX1, in complex with ZmTrpB in excess; with Tryptophan synthase beta chain, chloroplastic
Description: steady-state kinetics, coupled assay with GAP dehydrogenase (NAD+) on ZmTrpA^L6BX1 + ZmTrpB

[2] = substrate: O=P(O)(O)OC[C@@H](O)[C@@H](O)c1c[nH]c2ccccc12; type: biochemical, Zea mays; conditions: retro-aldol cleavage, 100 mM EPPS/KOH pH 7.5, 180 mM KCl, 40 μM PLP, 6 mM NAD+, 20 mM Na3AsO4, 30 °C, no TrpB
Description: steady-state kinetics, coupled assay with GAP dehydrogenase (NAD+) on ZmBX1

T1 sequence (B2Y0K4 entry or part of it): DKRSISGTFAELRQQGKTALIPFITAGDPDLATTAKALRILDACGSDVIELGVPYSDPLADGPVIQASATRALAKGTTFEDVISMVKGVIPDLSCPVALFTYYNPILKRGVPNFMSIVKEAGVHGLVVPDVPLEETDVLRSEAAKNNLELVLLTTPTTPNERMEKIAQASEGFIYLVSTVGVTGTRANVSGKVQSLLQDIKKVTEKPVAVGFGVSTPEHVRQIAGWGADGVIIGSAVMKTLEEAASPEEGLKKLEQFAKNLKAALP
T1 sequence (P43284 46-443, further chain): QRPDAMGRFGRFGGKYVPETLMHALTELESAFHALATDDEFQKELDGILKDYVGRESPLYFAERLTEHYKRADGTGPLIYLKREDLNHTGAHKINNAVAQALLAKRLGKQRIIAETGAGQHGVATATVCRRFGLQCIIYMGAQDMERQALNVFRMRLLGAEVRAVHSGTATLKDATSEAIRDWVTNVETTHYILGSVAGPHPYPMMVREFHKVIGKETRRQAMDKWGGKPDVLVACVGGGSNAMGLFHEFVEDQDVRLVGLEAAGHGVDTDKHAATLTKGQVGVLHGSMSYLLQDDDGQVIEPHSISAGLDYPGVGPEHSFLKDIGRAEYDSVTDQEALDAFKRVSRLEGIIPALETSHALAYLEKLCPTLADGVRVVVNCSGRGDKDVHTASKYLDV
T3 sequence (P43284 46-443, stated change not applied, form open): as the sequence (P43284 46-443, further chain) above
T3 sequence (B2Y0K4 entry or part of it T232V/V233N/T238P/S243N/G244P/K245R, form open): as the sequence (B2Y0K4 entry or part of it) above, with T179V, V180N, T185P, S190N, G191P, K192R counted along it
T2 sequence (B2Y0K4 entry or part of it T232V/V233N/T238P/S243N/G244P/K245R): as the sequence (B2Y0K4 entry or part of it) above, with T179V, V180N, T185P, S190N, G191P, K192R counted along it

Molecule | Km (ZmTrpA + ZmTrpB; variant ZmTrpA^SPM4) [µM] | Km (ZmTrpA + ZmTrpB; variant ZmTrpA^SPM6) [µM] | Km [1] [µM] | Km (ZmTrpA^L6BX1 + ZmTrpB) [µM] | Km [2] [µM] | kcat [2] [s⁻¹] | kcat/Km [2] [M⁻¹ s⁻¹]
O=P(O)(O)OC[C@@H](O)[C@@H](O)c1c[nH]c2ccccc12 [indole-glycerol phosphate] | 134 ± 9 | 103 ± 13.1 | 3350 ± 340 | 70 ± 12 | – | – | –
B1 | – | – | – | – | 11 ± 1.3 | 5.2 ± 0.13 | 474000 ± 56100
